The results in this text go back to patent publication US20080207683A1, “BIARYL-S[…]-PYRAZOLO-PYRIDINE MODULATORS OF CATHEPSIN S” (priority 2007, published 2008).

In the first assay the target is T1, Human CatS (Homo sapiens, UniProt P25774).
T1 construct: made in house; host or cells: Sf9 insect cells (baculovirus vector pFB+HT)
T1 sequence (P25774 115-331): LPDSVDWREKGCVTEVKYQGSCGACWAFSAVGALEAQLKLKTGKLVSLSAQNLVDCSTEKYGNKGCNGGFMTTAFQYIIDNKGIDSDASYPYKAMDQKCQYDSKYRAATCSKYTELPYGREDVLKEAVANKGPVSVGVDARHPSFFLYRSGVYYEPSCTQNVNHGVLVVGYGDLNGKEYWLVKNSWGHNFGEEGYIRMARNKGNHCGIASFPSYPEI
Nature of the assay: CatS inhibition of hydrolysis of fluorescent substrate Z-Val-Val-Arg-AFC. The format is biochemical.
Conditions: not given
How it is done:
Human CatS was cloned into pFB+HT (from Stratagene clone), expressed in Sf9 cells, and purified over a Ni column. Fractions were concentrated and activated at pH 4.0 for 6 hr and then purified over a thiopropylsepharose column and eluted with 1×TBS, 500 mM NaCl, 1 mM EDTA, 25 mM DTT pH 7.6. Glycerol (50%) was added in a 1:1 (vol/vol) ratio (25% glycerol final) and protein was stored at −80° C. in 5 μL aliquots. […] The increase in fluorescence over time was monitored using λexcitation=400 nm and λemission=505 nm.
In equation 1, v is the initial rate measured in the presence of [I]0, the inhibitor concentration, using an enzyme concentration [E]0. v0 is the initial rate measured in the absence of inhibitor.
For the molecule `CS(=O)(=O)N1CCc2c(c(-c3ccc(Cl)c(-c4cccc(C(=O)NCc5cc6ccccc6[nH]5)c4)c3)nn2CCCN2CCCC2)C1` [Example 13, 2′-Chloro-5′-[5-methanesulfonyl-1-(3-pyrrolidin-1-yl-propyl)-4,5,6,7-tetrahydro-1H-pyrazolo[4,3-c]pyridin-3-yl]-biphenyl-3-carboxylic acid (1H-indol-2-ylmethyl)-amide], the Ki worked out at 330 nM.

Staying with this assay, now noted: apparent Ki, Morrison equation fit of initial rates; 10 μM Z-Val-Val-Arg-AFC, pH 5.0, 1.5 nM CatS; read-out: CatS Ki^app.
Consider `CS(=O)(=O)N1CCc2c(c(-c3ccc(Cl)c(-c4cccc(C(=O)NCCN5CCc6cc(F)ccc65)c4)c3)nn2CCCN2CCCC2)C1` [Example 8, 2′-Chloro-5′-[5-methanesulfonyl-1-(3-pyrrolidin-1-yl-propyl)-4,5,6,7-tetrahydro-1H-pyrazolo[4,3-c]pyridin-3-yl]-biphenyl-3-carboxylic acid [2-(5-fluoro-2,3-dihydro-indol-1-yl)-ethyl]-amide], for which the Ki is 237 nM. Take `O=C(NCCNc1ccc(OCC2CCCC2)cc1)c1cccc(-c2cc(-c3nn(CCCN4CCC(O)C4)c4c3CNCC4)ccc2Cl)c1` (stereo not drawn) [Example 47, 2′-Chloro-5′-{1-[3-(3-hydroxy-pyrrolidin-1-yl)-propyl]-4,5,6,7-tetrahydro-1H-pyrazolo[4,3-c]pyridin-3-yl}-biphenyl-3-carboxylic acid [2-(4-cyclopentylmethoxy-phenylamino)-ethyl]-amide]: the Ki was 53.7 nM.

For the molecule `CS(=O)(=O)N1CCc2c(c(-c3ccc(Cl)c(-c4cccc(C(=O)NCCN5CCc6ccc(F)cc65)c4)c3)nn2CCCN2CCC(N3CCCC3=O)CC2)C1` [Example 33, 2′-Chloro-5′-(5-methanesulfonyl-1-{3-[4-(2-oxo-pyrrolidin-1-yl)-piperidin-1-yl]-propyl}-4,5,6,7-tetrahydro-1H-pyrazolo[4,3-c]pyridin-3-yl)-biphenyl-3-carboxylic acid [2-(6-fluoro-2,3-dihydro-indol-1-yl)-ethyl]-amide], the Ki turned out to be 163 nM. Still for that read-out and setting: with `C[C@@H](NC(=O)c1cccc(-c2cc(-c3nn(CCCN4CCCC4)c4c3CN(S(C)(=O)=O)CC4)ccc2Cl)c1)c1nc(-c2ccccc2)cs1` [Example 24, (R)-2′-Chloro-5′-[5-methanesulfonyl-1-(3-pyrrolidin-1-yl-propyl)-4,5,6,7-tetrahydro-1H-pyrazolo[4,3-c]pyridin-3-yl]-biphenyl-3-carboxylic acid [1-(4-phenyl-thiazol-2-yl)-ethyl]-amide] the figure was 175 nM; with `Cc1ccc(NCCNC(=O)c2cccc(-c3cc(-c4nn(CCCN5CCC(O)C5)c5c4CNCC5)ccc3Cl)c2)cc1C` (stereo not drawn) [Example 42, 2′-Chloro-5′-{1-[3-(3-hydroxy-pyrrolidin-1-yl)-propyl]-4,5,6,7-tetrahydro-1H-pyrazolo[4,3-c]pyridin-3-yl}-biphenyl-3-carboxylic acid [2-(3,4-dimethyl-phenylamino)-ethyl]-amide], 41.7 nM.

For `COc1ccc(NCCNC(=O)c2cccc(-c3cc(-c4nn(CCCN5CCCC5)c5c4CN(S(C)(=O)=O)CC5)ccc3Cl)c2)cc1` [Example 1, 2′-Chloro-5′-[5-methanesulfonyl-1-(3-pyrrolidin-1-yl-propyl)-4,5,6,7-tetrahydro-1H-pyrazolo[4,3-c]pyridin-3-yl]-biphenyl-3-carboxylic acid [2-(4-methoxy-phenylamino)-ethyl]-amide], the Ki was determined as 85 nM.

Turning to `CS(=O)(=O)N1CCc2c(c(-c3ccc(Cl)c(-c4cccc(C(=O)NCCNc5cccc6c5CCC6)c4)c3)nn2CCCN2CCCC2)C1` [Example 3, 2′-Chloro-5′-[5-methanesulfonyl-1-(3-pyrrolidin-1-yl-propyl)-4,5,6,7-tetrahydro-1H-pyrazolo[4,3-c]pyridin-3-yl]-biphenyl-3-carboxylic acid [2-(indan-4-ylamino)-ethyl]-amide], the Ki is 335 nM. As for `CS(=O)(=O)N1CCc2c(c(-c3ccc(Cl)c(-c4cccc(C(=O)NCc5nc(-c6ccccc6)cs5)c4)c3)nn2CCCN2CCCC2)C1` [Example 23, 2′-Chloro-5′-[5-methanesulfonyl-1-(3-pyrrolidin-1-yl-propyl)-4,5,6,7-tetrahydro-1H-pyrazolo[4,3-c]pyridin-3-yl]-biphenyl-3-carboxylic acid (4-phenyl-thiazol-2-ylmethyl)-amide], the Ki is 88.9 nM. Same read-out and setting: next, `CN(C)S(=O)(=O)c1ccc2c(c1)N(CCNC(=O)c1cccc(-c3cc(-c4nn(CCCN5CCC(O)C5)c5c4CNCC5)ccc3Cl)c1)CC2` (stereo not drawn) [Example 46, 2′-Chloro-5′-{1-[3-(3-hydroxy-pyrrolidin-1-yl)-propyl]-4,5,6,7-tetrahydro-1H-pyrazolo[4,3-c]pyridin-3-yl}-biphenyl-3-carboxylic acid [2-(6-dimethylsulfamoyl-2,3-dihydro-indol-1-yl)-ethyl]-amide]: 510 nM; `COc1ccc(NC(=O)CNC(=O)c2cccc(-c3cc(-c4nn(CCCN5CCCC5)c5c4CN(S(C)(=O)=O)CC5)ccc3Cl)c2)cc1` [Example 26, 2′-Chloro-5′-[5-methanesulfonyl-1-(3-pyrrolidin-1-yl-propyl)-4,5,6,7-tetrahydro-1H-pyrazolo[4,3-c]pyridin-3-yl]-biphenyl-3-carboxylic acid [(4-methoxy-phenylcarbamoyl)-methyl]-amide]: 712 nM. For the molecule `COc1ccc(NCCNC(=O)c2cccc(-c3cc(-c4nn(CCCN5CCC(N6CCCC6=O)CC5)c5c4CN(S(C)(=O)=O)CC5)ccc3Cl)c2)cc1` [Example 31, 2′-Chloro-5′-(5-methanesulfonyl-1-{3-[4-(2-oxo-pyrrolidin-1-yl)-piperidin-1-yl]-propyl}-4,5,6,7-tetrahydro-1H-pyrazolo[4,3-c]pyridin-3-yl)-biphenyl-3-carboxylic acid [2-(4-methoxy-phenylamino)-ethyl]-amide], the Ki stood at 27.3 nM.

As for `CS(=O)(=O)N1CCc2c(c(-c3ccc(Cl)c(-c4cccc(C(=O)NCCNc5ccc(OCC6CCCC6)cc5)c4)c3)nn2CCCN2CCCC2)C1` [Example 5, 2′-Chloro-5′-[5-methanesulfonyl-1-(3-pyrrolidin-1-yl-propyl)-4,5,6,7-tetrahydro-1H-pyrazolo[4,3-c]pyridin-3-yl]-biphenyl-3-carboxylic acid [2-(4-cyclopentylmethoxy-phenylamino)-ethyl]-amide], the Ki is 60.2 nM. Still for that read-out and setting: next, `CCC(NC(=O)c1cccc(-c2cc(-c3nn(CCCN4CCCC4)c4c3CN(S(C)(=O)=O)CC4)ccc2Cl)c1)c1nc2cc(C)ccc2[nH]1` (stereo not drawn) [Example 17, 2′-Chloro-5′-[5-methanesulfonyl-1-(3-pyrrolidin-1-yl-propyl)-4,5,6,7-tetrahydro-1H-pyrazolo[4,3-c]pyridin-3-yl]-biphenyl-3-carboxylic acid [1-(5-methyl-1H-benzoimidazol-2-yl)-propyl]-amide]: 125 nM; `Cc1ccc2[nH]c(C(C)NC(=O)c3cccc(-c4cc(-c5nn(CCCN6CCCC6)c6c5CN(S(C)(=O)=O)CC6)ccc4Cl)c3)nc2c1` (stereo not drawn) [Example 16, 2′-Chloro-5′-[5-methanesulfonyl-1-(3-pyrrolidin-1-yl-propyl)-4,5,6,7-tetrahydro-1H-pyrazolo[4,3-c]pyridin-3-yl]-biphenyl-3-carboxylic acid [1-(5-methyl-1H-benzoimidazol-2-yl)-ethyl]-amide]: 24 nM.
